Where “and” joins values, the source holds several entries; their conditions need not be identical. Equal values may be shown once.
Test: CNS penetration: total and unbound drug concentrations in tumor regions, CSF and plasma (LC-MS/MS, equilibrium dialysis);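 note: drug levels in patient tumor tissue from contrast-enhancing and non-enhancing regions sampled under MRI-guided neuronavigation, with plasma and CSF drawn during surgical resection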
Details: for concentration at 5 days / Kp at 120 h / Kp: human, oral
[1] = Level 6: Ribociclib 600mg QD + Everolimus 70mg once on Day 5, sampling 7-9 Hours, per patient

CO[C@H]1C[C@@H]2CC[C@@H](C)[C@@](O)(O2)C(=O)C(=O)N2CCCC[C@H]2C(=O)O[C@H]([C@H](C)C[C@@H]2CC[C@@H](OCCO)[C@H](OC)C2)CC(=O)[C@H](C)/C=C(\C)[C@@H](O)[C@@H](OC)C(=O)[C@H](C)C[C@H](C)/C=C/C=C/C=C/1C [Everolimus, everolimus]
Everolimus.Unbound.plasma (Level 5: Ribociclib 600mg QD + Everolimus 60mg once on Day 5, sampling 7-9 Hours, per patient): 4.09E-04 and 6.26E-04 and 4.66E-04 | Everolimus.CSF [1]: 1.14E-02 and BLQ and 1.29E-03 | Everolimus.Enhancing.tumor [1]: 7.18E-02 and 9.00E-02 and 3.12E-02 | Everolimus.Non-enhancing.tumor [1]: 7.82E-02 and 8.24E-03 and 6.80E-03 | Everolimus.Plasma.conc [1]: 0.0531 and 0.05464 and 0.09057 | Everolimus.Unbound.enhancing [1]: BLQ | Everolimus.Unbound.non-enhancing [1]: BLQ | Everolimus.Unbound.plasma [1]: 3.00E-04 and 2.82E-04 and 4.90E-04 | Kp total drug tumor-to-plasma partition ratio, Enhancing tumor, MAX (everolimus 2.5 mg QD 5 days): 2.738 | Kp total drug tumor-to-plasma partition ratio, Enhancing tumor, MIN (everolimus 2.5 mg QD 5 days): BLQ | Kp total drug tumor-to-plasma partition ratio, Non-enhancing tumor, MAX (everolimus 2.5 mg QD 5 days): 1.02 | Kp total drug tumor-to-plasma partition ratio, Non-enhancing tumor, MIN (everolimus 2.5 mg QD 5 days): BLQ | Kp total drug tumor-to-plasma partition ratio, Enhancing tumor, MAX (everolimus 5 mg QD 5 days): 1.77 | Kp total drug tumor-to-plasma partition ratio, Enhancing tumor, MIN (everolimus 5 mg QD 5 days): 0.59 | Kp total drug tumor-to-plasma partition ratio, Non-enhancing tumor, MAX (everolimus 5 mg QD 5 days): 1.09 | Kp total drug tumor-to-plasma partition ratio, Non-enhancing tumor, MIN (everolimus 5 mg QD 5 days): 0.37 | Kp total drug tumor-to-plasma partition ratio, Enhancing tumor, MAX (everolimus 10 mg QD 5 days): 1.97 | Kp total drug tumor-to-plasma partition ratio, Enhancing tumor, MIN (everolimus 10 mg QD 5 days): BLQ | Kp total drug tumor-to-plasma partition ratio, Non-enhancing tumor, MAX (everolimus 10 mg QD 5 days): 1.07 | Kp total drug tumor-to-plasma partition ratio, Non-enhancing tumor, MIN (everolimus 10 mg QD 5 days): 0.07 | Kp total drug tumor-to-plasma partition ratio, Enhancing tumor, MAX (everolimus 50 mg single dose): 1.18 | Kp total drug tumor-to-plasma partition ratio, Enhancing tumor, MIN (everolimus 50 mg single dose): 0.65 | Kp total drug tumor-to-plasma partition ratio, Non-enhancing tumor, MAX (everolimus 50 mg single dose): 0.32 | Kp total drug tumor-to-plasma partition ratio, Non-enhancing tumor, MIN (everolimus 50 mg single dose): BLQ | Kp total drug tumor-to-plasma partition ratio, Enhancing tumor, MAX (everolimus 60 mg single dose): 1.24 | Kp total drug tumor-to-plasma partition ratio, Enhancing tumor, MIN (everolimus 60 mg single dose): 0.145 | Kp total drug tumor-to-plasma partition ratio, Non-enhancing tumor, MAX (everolimus 60 mg single dose): 0.51 | Kp total drug tumor-to-plasma partition ratio, Enhancing tumor, MAX (everolimus 70 mg single dose): 1.64 | Kp total drug tumor-to-plasma partition ratio, Enhancing tumor, MIN (everolimus 70 mg single dose): 0.34 | Kp total drug tumor-to-plasma partition ratio, Non-enhancing tumor, MAX (everolimus 70 mg single dose): 1.47 | Kp total drug tumor-to-plasma partition ratio, Non-enhancing tumor, MIN (everolimus 70 mg single dose): 0.075 | concentration at 5 days (CSF, Total everolimus, MAX, 10 mg QD 5 days): 2.5 nM | concentration at 5 days (CSF, Total everolimus, MAX, 50 mg single dose): 1.5 nM | concentration at 5 days (CSF, Total everolimus, MED, 2.5 mg QD 5 days): 0.33 nM | concentration at 5 days (CSF, Total everolimus, MED, 50 mg single dose): 0.935 nM | concentration at 5 days (CSF, median everolimus CSF concentration, across the different dose levels): 0.48 nM | Kp at 120 h (enhancing tumor and plasma, 2.5 mg): 0.62 | Kp at 120 h (enhancing tumor and plasma, 5 mg): 1.32 | Kp at 120 h (enhancing tumor and plasma, 10 mg): 1.2 | Kp (enhancing tumor and plasma, 50 mg): 0.89 | Kp (enhancing tumor and plasma, 60 mg): 0.33 | Kp (enhancing tumor and plasma, 70 mg): 1.35 | concentration at 5 days (enhancing tumor, Total everolimus, MAX, 2.5 mg QD 5 days): 83.4 nM | concentration at 5 days (enhancing tumor, Total everolimus, MAX, 5 mg QD 5 days): 39.8 nM | concentration at 5 days (enhancing tumor, Total everolimus, MAX, 10 mg QD 5 days): 61.3 nM | concentration at 5 days (enhancing tumor, Total everolimus, MAX, 50 mg single dose): 74.1 nM | concentration at 5 days (enhancing tumor, Total everolimus, MAX, 60 mg single dose): 87.6 nM | concentration at 5 days (enhancing tumor, Total everolimus, MAX, 70 mg single dose): 90 nM | concentration at 5 days (enhancing tumor, Total everolimus, MED, 2.5 mg QD 5 days): 5.9 nM | concentration at 5 days (enhancing tumor, Total everolimus, MED, 5 mg QD 5 days): 16.6 nM | concentration at 5 days (enhancing tumor, Total everolimus, MED, 10 mg QD 5 days): 44 nM | concentration at 5 days (enhancing tumor, Total everolimus, MED, 50 mg single dose): 54.5 nM | concentration at 5 days (enhancing tumor, Total everolimus, MED, 60 mg single dose): 30.4 nM | concentration at 5 days (enhancing tumor, Total everolimus, MED, 70 mg single dose): 71.8 nM | concentration at 5 days (enhancing tumor, Total everolimus, MIN, 5 mg QD 5 days): 11.1 nM | concentration at 5 days (enhancing tumor, Total everolimus, MIN, 50 mg single dose): 51.6 nM | concentration at 5 days (enhancing tumor, Total everolimus, MIN, 60 mg single dose): 9.8 nM | concentration at 5 days (enhancing tumor, Total everolimus, MIN, 70 mg single dose): 31.2 nM | Kp at 120 h (non-enhancing tumor / plasma, 5 mg): 0.89 | Kp at 120 h (non-enhancing tumor / plasma, 10 mg): 0.1 | Kp at 120 h (non-enhancing tumor and plasma, 2.5 mg): 0.49 | Kp (non-enhancing tumor and plasma, 50 mg): 0.21 | Kp (non-enhancing tumor and plasma, 60 mg): 0.17 | Kp (non-enhancing tumor and plasma, 70 mg): 0.15 | concentration at 5 days (non-enhancing tumor, Total everolimus, MAX, 2.5 mg QD 5 days): 35.3 nM | concentration at 5 days (non-enhancing tumor, Total everolimus, MAX, 5 mg QD 5 days): 20.2 nM | concentration at 5 days (non-enhancing tumor, Total everolimus, MAX, 10 mg QD 5 days): 33.3 nM | concentration at 5 days (non-enhancing tumor, Total everolimus, MAX, 50 mg single dose): 25.1 nM | concentration at 5 days (non-enhancing tumor, Total everolimus, MAX, 60 mg single dose): 36.1 nM | concentration at 5 days (non-enhancing tumor, Total everolimus, MAX, 70 mg single dose): 78.2 nM | concentration at 5 days (non-enhancing tumor, Total everolimus, MED, 2.5 mg QD 5 days): 5.28 nM | concentration at 5 days (non-enhancing tumor, Total everolimus, MED, 5 mg QD 5 days): 10.3 nM | concentration at 5 days (non-enhancing tumor, Total everolimus, MED, 10 mg QD 5 days): 5 nM | concentration at 5 days (non-enhancing tumor, Total everolimus, MED, 50 mg single dose): 15.7 nM | concentration at 5 days (non-enhancing tumor, Total everolimus, MED, 60 mg single dose): 13.8 nM | concentration at 5 days (non-enhancing tumor, Total everolimus, MED, 70 mg single dose): 8.2 nM | concentration at 5 days (non-enhancing tumor, Total everolimus, MIN, 5 mg QD 5 days): 9.2 nM | concentration at 5 days (non-enhancing tumor, Total everolimus, MIN, 10 mg QD 5 days): 4.5 nM | concentration at 5 days (non-enhancing tumor, Total everolimus, MIN, 60 mg single dose): 11.3 nM | concentration at 5 days (non-enhancing tumor, Total everolimus, MIN, 70 mg single dose): 6.8 nM | concentration at 5 days (tumor tissue (enhancing and non-enhancing regions), unbound everolimus concentrations in enhancing and non-enhancing tumor regions (below the lower limit of quantitation), all dose levels): < 0.1 nM

— PMC13070491, “Single-nucleus transcriptomics, pharmacokinetics, and pharmacodynamics of CDK4/6 and mTOR inhibition in a Phase 0/1 trial of recurrent high-grade glioma” (Neuro-Oncology, 2025)
